The text below walks through data of patent US10413535B2, “Pharmaceutical compositions comprising an integrin ALPHA4 antagonist for use in treating ocular inflammatory conditions” (AXEROVISION, INC., priority 2015, dated 2019).

One data set addresses T1, α4β1-CS-1 (Homo sapiens, UniProt P05556+P13612).
T1 construct: characterized in human J6 cells which express VLA-4; endogenous in cells; host or cells: Jurkat J6 cells (human lymphoblast cell line)
Briefly: CS-1 cell adhesion assay, Jurkat J6 cells. It is filed as cell-based. Particulars: J6 cells to CS-1; read-out: Inhibition of cell adhesion (IC50). The method, then:
Jurkat J6 cells (human lymphoblast cell line) were grown as a suspension culture in RPMI 1640 supplemented with FCS (10%) and glutamine (2 mM). RPMI8866 cells (human B lymphoid cell line) were grown as a suspension culture in RPMI 1640 supplemented with FCS (10%) and glutamine (2 mM). RBL-2H3 cells (rat basophilic cell line) were cultured in Eagle's MEM plus Earles salts supplemented with 2 mM L-glutamine, 1 mM sodium pyruvate, 1× non-essential amino acids, 1 mM Na pyruvate 10% heat inactivated foetal calf serum.
Polystyrene 96-well microtitre plates were coated with CS-1 (connecting segment 1, a cell attachment domain of fibronectin) at a concentration of 0.01 mg/mL in bicarbonate buffer overnight at 4° C. The solution was aspirated and the plates washed twice with PBS. The plates were then incubated at room temperature in the presence of 3% BSA for 60 min, ‘flicked’ to expel the BSA and washed twice in bicarbonate buffer. J6 or RPMI cells (as required) were labelled with the fluorescent dye BCECF-AM (10 μM and 6×10^6 cells/mL) for 10 min at 37° C. before the excess was removed by centrifugation at 500 g for 5 min and the cells resuspended at a cell concentration of 1.2×10^7 cells/mL in HBSS. Equal volumes of HBSS containing the compound of formula I (over concentration range 19.0 pM to 5 μM) and cells were added to the CS-1 coated plates. […] The plates were counted in a Wallac Viktor.

In the next data set the test system is Beagle Dogs. Put plainly: 13-week topical ocular toxicity study in Beagle dogs. Format: in vivo, dog. Here is the method: GW559090A was given to Beagle Dogs by topical ocular administration for 13 weeks. Animals were dosed six or twelve times per day, with one hour between doses. Treatment groups were: (1) vehicle (12 times a day), (2) 30 mg/mL/occasion given six times a day, (3) 50 mg/mL/occasion given six times a day, or (4) 50 mg/mL/occasion, given 12 times a day.
GW559090A was formulated as a stock solution in 25 mM phosphate buffer with 0.5% sodium chloride to provide a 50 mg/mL stock solution, which was used for administration to Groups 3 or 4, or further diluted with 25 mM phosphate buffer with 0.75% sodium chloride to provide a 30 mg/mL solution for administration to Group 2.
During the 13 week treatment period dogs received daily topical ocular doses of GW559090 or vehicle (12 times a day) at a constant dose volume of 0.06 mL (given 6 or 12 times a day, with one hour between doses). The test article formulation or vehicle was carefully dropped into the everted lower eyelid of the left eye from a suitable distance, to prevent contact of the positive displacement pipette with the eye. The lower and upper lids were then gently held together for approximately five seconds, to prevent loss of dose and aid even distribution across the external ocular surface. The un-dosed eye was not manipulated at any time and served as a within animal untreated control site.

The mark [1] stands for this setting: topical ocular 13 weeks, 30 or 50 mg/mL/occasion six times daily or 50 mg/mL/occasion 12 times daily.

T1 sequence (P13612 34-1032): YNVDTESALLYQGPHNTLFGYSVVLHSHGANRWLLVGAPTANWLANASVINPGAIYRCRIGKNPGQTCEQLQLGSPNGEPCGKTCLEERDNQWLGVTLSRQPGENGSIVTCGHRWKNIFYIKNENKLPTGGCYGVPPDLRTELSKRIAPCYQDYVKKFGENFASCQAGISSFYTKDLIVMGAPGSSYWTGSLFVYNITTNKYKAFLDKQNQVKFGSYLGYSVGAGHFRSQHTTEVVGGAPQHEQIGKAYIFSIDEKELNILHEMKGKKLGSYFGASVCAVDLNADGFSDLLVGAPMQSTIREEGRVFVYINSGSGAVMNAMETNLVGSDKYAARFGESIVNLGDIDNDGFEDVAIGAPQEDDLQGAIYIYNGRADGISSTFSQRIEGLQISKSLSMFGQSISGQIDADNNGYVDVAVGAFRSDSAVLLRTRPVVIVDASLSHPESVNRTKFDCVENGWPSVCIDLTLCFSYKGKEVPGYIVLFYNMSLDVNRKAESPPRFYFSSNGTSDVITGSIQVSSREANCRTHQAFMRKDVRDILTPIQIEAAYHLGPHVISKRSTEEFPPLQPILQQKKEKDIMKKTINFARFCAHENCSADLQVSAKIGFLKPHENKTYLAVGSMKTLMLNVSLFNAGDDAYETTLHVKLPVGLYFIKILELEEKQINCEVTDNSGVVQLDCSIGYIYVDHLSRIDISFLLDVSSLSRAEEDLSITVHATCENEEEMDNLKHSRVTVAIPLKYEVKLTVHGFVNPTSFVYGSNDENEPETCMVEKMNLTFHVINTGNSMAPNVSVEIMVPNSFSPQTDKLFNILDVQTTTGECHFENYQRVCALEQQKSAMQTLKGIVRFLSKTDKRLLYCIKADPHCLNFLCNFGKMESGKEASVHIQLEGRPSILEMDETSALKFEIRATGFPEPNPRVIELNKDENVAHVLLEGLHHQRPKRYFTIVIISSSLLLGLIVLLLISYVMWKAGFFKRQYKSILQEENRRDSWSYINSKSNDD
T1 sequence (P05556 21-798): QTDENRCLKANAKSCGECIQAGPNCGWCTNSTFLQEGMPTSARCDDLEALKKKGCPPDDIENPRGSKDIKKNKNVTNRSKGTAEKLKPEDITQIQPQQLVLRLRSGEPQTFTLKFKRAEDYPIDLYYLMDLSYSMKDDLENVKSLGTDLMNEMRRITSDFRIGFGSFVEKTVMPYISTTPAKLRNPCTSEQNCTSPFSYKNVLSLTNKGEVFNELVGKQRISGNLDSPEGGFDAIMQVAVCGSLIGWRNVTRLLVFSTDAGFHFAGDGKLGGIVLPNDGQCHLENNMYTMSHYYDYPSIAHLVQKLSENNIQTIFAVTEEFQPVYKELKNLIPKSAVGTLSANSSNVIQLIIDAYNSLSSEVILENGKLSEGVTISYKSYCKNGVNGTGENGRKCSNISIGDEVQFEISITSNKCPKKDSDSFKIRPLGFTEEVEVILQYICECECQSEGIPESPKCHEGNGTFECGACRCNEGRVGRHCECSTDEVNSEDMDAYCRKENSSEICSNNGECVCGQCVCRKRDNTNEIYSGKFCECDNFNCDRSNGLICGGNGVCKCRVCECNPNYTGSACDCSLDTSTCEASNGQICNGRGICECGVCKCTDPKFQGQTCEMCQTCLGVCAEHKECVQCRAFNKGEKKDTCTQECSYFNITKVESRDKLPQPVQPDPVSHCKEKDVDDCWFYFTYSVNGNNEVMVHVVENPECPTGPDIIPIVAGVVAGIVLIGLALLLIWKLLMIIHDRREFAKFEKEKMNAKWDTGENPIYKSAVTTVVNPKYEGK

Broadly, the IC50 is the concentration that gives 50% inhibition. For `Cc1ccccc1OCC(=O)N[C@@H](CC(C)C)C(=O)N[C@@H](Cc1ccc(OC(=O)N2CCC(C(N)=O)CC2)cc1)C(=O)O` [GW559090, (2S)-3-[4-({[4-(Aminocarbonyl)-1-piperidinyl]carbonyl}oxy)phenyl]-2-[((2S)-4-methyl-2-{[2-(2-methylphenoxy)acetyl]amino}pentanoyl)amino]propanoic acid], at α4β1-CS-1, the IC50 came out at 8.04 nM. In the data set with Beagle Dogs (given 12 times a day, 13 weeks), the “No-Observed-Adverse-Effect level (NOAEL)” value stood at 50 mg/mL/occasion. In the data set on Beagle Dogs (setting [1]), the “Ocular change or systemic toxicity” value was “no ocular change or systemic toxicity” and the Tolerability entry is “well-tolerated”.
